# Measured values: patent publication US11058772B2, “(Bacterio)chlorophyll photosensitizers for treatment of eye diseases and disorders” (Yeda Research and Development Co. Ltd., priority 2011, dated 2021)
# Tests used:
# [1] = system: rabbit cornea; assay: Penetration depth in cornea from aqueous 65% sucrose solution; type: in vivo; conditions: 2.5 mg/ml in aqueous 65% sucrose
# Method: Eyes of rabbits were enucleated and deepithelialised mechanically post mortem. The eyes were exposed to Bchl-S solution using an eye cap for 5, 10, and 30 minutes and to Bchl-D solution for 10 and 30 min, in darkness. Controls: untreated eyes, and one eye treated with dextran-500 only for 30 min in darkness. Following this pretreatment, the corneas were briefly rinsed with saline and the central 8-mm buttons were trephined, removed, wrapped in aluminum foil and frozen on dry ice until further use. Central serial corneal sagittal slices (12 μm) were cut with a cryomicrotome, mounted on a microscope glass slide and stored frozen in −70° C. until use. For measurement of fluorescence, the individual slices were placed on the microscope base and a photographic record was immediately taken. Fluorescence intensity of Bchl-S or Bchl-D treated corneas from 3 serial cryo sections was recorded at 760 nm, upon excitation at 740 nm, using a fluorescence microscope (BX61 Olympus, Japan) equipped with CCD camera (Cascade 512B, Roper Sci., USA) and a long pass filter of above 760 nm. The digital data was analyzed, using ImageJ software (NIH, USA). […]
# [2] = system: rabbit sclera; assay: Biomechanical testing of rabbit sclera treated ex vivo, NIR illumination through the anterior eye segment; conditions: 20 min incubation
# Method: The corneal and scleral strips were clamped horizontally, at a distance of 6 mm, between the jaws of a microcomputer-controlled biomaterial tester (Minimat, Germany) with a 200 Newton force cell (FIG. 1). Controlled tightening of screws was performed with a calibrated screwdriver at a preset torque of 9 cN.m (Torqueleader, England). The strain was increased linearly at a rate of 1.0 mm/min and was measured up to tissue rupture. Young's modulus was calculated by the testing machine. Ultimate stress and Young's modulus were expressed in Mega Pascal (MPa) units.
# Six eyes of three rabbits were enucleated. The posterior eye area up to the equatorial line was incubated using an eye cap with 2.5 mg/ml solution of WST11 in saline pH 7.3 for 20 minutes and then illuminated by NIR illumination through the anterior cornea using a diode laser (755 nm, 0.5 W) and three mirror fundus lens (FIGS. 18A-18C) for 30 minutes. Strips of sclera were cut and tested as described in Materials and Methods.
compound,measurement,setting,value
"CCC1C2=Cc3c(C)c(C(=O)NCCS(=O)(=O)[O-])c4[n]3[Pd][n]3c(c(C)c(C(C)=O)c3=CC(=N2)C1C)=CC1=NC(=C4CC(=O)OC)C(CCC(=O)[O-])C1C.[K+].[K+] (stereo not drawn) [WST11, Palladium 3^1-oxo-15-methoxycarbonylmethyl-rhodobacteriochlorin 13^1-(2-sulfoethyl)amide dipotassium salt]","penetration, fraction of the outer stroma",[1]; 10-min incubation,⅓
same,"penetration, fraction of the outer stroma",[1]; 30-min incubation,½
same,increase in Young's modulus,[2]; NIR through anterior cornea,54%
same,increase in maximal stress,[2]; NIR through anterior cornea,42%
same,mean maximal stress,"[2]; NIR through anterior cornea 30 min, control 4.65±1.15",6.59±1.32 MPa
same,mean Young's modulus,"[2]; NIR through anterior cornea 30 min, control 25.25±5.30",38.83±6.89 MPa
